According to patent publication US20250019373A1, “ARYL OR HETEROARYL DERIVATIVE, AND PHARMACEUTICAL COMPOSITION COMPRISING SAME AS ACTIVE INGREDIENT FOR PREVENTION OR TREATMENT OF KINASE-RELATED DISEASES” (VORONOI INC., priority 2021, published 2025):
pEC50: −log10 of the molar value.

What follows are molecules tested on HT-29 cells (assay: Cell necrosis inhibitory activity under necroptosis-inducing conditions (TNF-α, Z-VAD-FMK, LCL161) in HT-29 cells, Cell Titer-Glo). Conditions: Homo sapiens, 100 ng/mL TNF-α + 25 μM Z-VAD-FMK + Smac mimetic LCL161, 24 hours, cell viability.
Type: cell-based
Method: To evaluate the cell necrosis inhibitory activity of the compound according to the present invention, an experiment was conducted as follows.
To evaluate the efficacy of inhibiting cell necrosis under TNF-α-mediated cell death-inducing conditions, a HT-29 cell line (Korean Cell Line Bank Accession No. #30038) was cultured in RPMI-1640 (HyClone #SH3027.01) medium containing 10% fetal bovine serum (FBS) and 1% penicillin/streptomycin to analyze cell viability. More specifically, for testing, the cell line was seeded in a 96-well flat bottom plate (Corning #3903) at a concentration of 10,000 cells/well and incubated at 37° C. under a 5% CO2 condition for 24 hours. Each well was treated with 100 ng/mL TNF-α, 25 μM pan-caspase inhibitor (Z-VAD-FMK, Selleckchem #S8102), and 10 µM Smac mimetic LCL161 (Selleckchem #S7009) and allowed to react for 10 minutes. The compounds of Examples were treated at 11 concentrations (the highest concentration being 0.1 μM or 1 μM) with a 3-fold concentration gradient, and as a control, dimethyl sulfoxide (DMSO) was treated at a concentration of 0.05% (v/v), which is the same as those when the compounds were treated. The treated cells were incubated for 24 hours. To confirm the degree of cell viability, 100 μL of Cell Titer-Glo (Promega #G7573) was added to the medium of the cultured cells and cultured for additional 10 minutes, and then luminescence was measured using a microplate reader. Based on the […] of control cells that were not treated with the compound, the degree of cell necrosis inhibitory activity was calculated according to the treatment concentration of each compound. Here, the concentration at which the cell necrosis inhibitory activity was 50% was determined as an EC50 (nM) value and calculated using Prism (ver. 8.4.3 #GraphPad) software.

Compared with Cc1ncc(-c2ccc3nc(N)nn3c2)cc1NC(=O)N1OCC[C@H]1c1cc(F)cc(F)c1 [Example 38, (S)-N-(5-(2-amino-[1,2,4]triazolo[1,5-a]pyridin-6-yl)-2-methylpyridin-3-yl)-3-(3,5-difluorophenyl)isoxazolidine-2-carboxamide], COc1cccc([C@@H]2CCON2C(=O)Nc2cc(-c3ccc4nc(N)nn4c3)cnc2C)c1 [Example 45, (S)-N-(5-(2-amino-[1,2,4]triazolo[1,5-a]pyridin-6-yl)-2-methylpyridin-3-yl)-3-(3-methoxyphenyl)isoxazolidine-2-carboxamide] is 0.46 log units lower in pEC50: 8.80 for the first, 8.34 for the second.

First: Cc1ccc(-c2ccc3nc(NC(=O)C4CC4)sc3c2)cc1NC(=O)N1OCC[C@H]1c1ccc(C#N)cc1 [Example 93, (S)-3-(4-cyanophenyl)-N-(5-(2-(cyclopropanecarboxamido)benzo[d]thiazol-6-yl)-2-methylphenyl)isoxazolidine-2-carboxamide]
Second: Cc1ccc(-c2ccc3nc(N)nn3c2)cc1NC(=O)N1OCC[C@H]1c1ccc(C#N)cc1 [Example 91, (S)-N-(5-(2-amino-[1,2,4]triazolo[1,5-a]pyridin-6-yl)-2-methylphenyl)-3-(4-cyanophenyl)isoxazolidine-2-carboxamide]
The pEC50 of the first is 0.65 log units higher: 9.70 for the first, 9.05 for the second.

Going from Cc1ncc(-c2ccc3nc(N)nn3c2)cc1NC(=O)N1OCC[C@H]1c1ccc(C#N)cc1 [Example 68, (S)-N-(5-(2-amino-[1,2,4]triazolo[1,5-a]pyridin-6-yl)-2-methylpyridin-3-yl)-3-(4-cyanophenyl)isoxazolidine-2-carboxamide] to Cc1ccc(-c2ccc3nc(N)nn3c2)cc1NC(=O)N1OCC[C@H]1c1ccc(F)cc1 [Example 66, (S)-N-(5-(2-amino-[1,2,4]triazolo[1,5-a]pyridin-6-yl)-2-methylphenyl)-3-(4-fluorophenyl)isoxazolidine-2-carboxamide], the pEC50 rises from 8.41 to 9.40 (0.99 log units). The second is the more potent here.

Going from Cc1ccc(-c2ccn3nc(N)cc3c2)cc1NC(=O)N1OCC2(CC2)[C@H]1c1ccccc1 [Example 140, (R)-N-(5-(2-aminopyrazolo[1,5-a]pyridin-5-yl)-2-methylphenyl)-7-phenyl-5-oxa-6-azaspiro[2.4]heptane-6-carboxamide] to Cc1ccc(-c2ccn3nc(N)nc3c2)cc1NC(=O)N1OCC[C@H]1c1ccc(Cl)cc1 [Example 65, (S)-N-(5-(2-amino-[1,2,4]triazolo[1,5-a]pyridin-7-yl)-2-methylphenyl)-3-(4-chlorophenyl)isoxazolidine-2-carboxamide], the pEC50 rises from 8.77 to 9.70 (0.93 log units).

Going from CNC(=O)c1n[nH]c2cc(-c3cccc(NC(=O)N4OCC[C@H]4c4ccccc4)c3)ccc12 [Example 17, (S)-N-(3-(3-(methylcarbamoyl)-1H-indazol-6-yl)phenyl)-3-phenylisoxazolidine-2-carboxamide] to Cc1ncc(-c2ccn3nc(NC(=O)C4CC4)nc3c2)cc1NC(=O)N1OCC[C@H]1c1ccccc1 [Example 48, (S)-N-(5-(2-(cyclopropanecarboxamido)-[1,2,4]triazolo[1,5-a]pyridin-7-yl)-2-methylpyridin-3-yl)-3-phenylisoxazolidine-2-carboxamide], the pEC50 falls from 10.00 to 9.40 (0.60 log units).

Going from Cc1ccc(-c2ccc3nc(N)nn3c2)cc1NC(=O)N1OCC[C@H]1c1cccc(F)c1 [Example 60, (S)-N-(5-(2-amino-[1,2,4]triazolo[1,5-a]pyridin-6-yl)-2-methylphenyl)-3-(3-fluorophenyl)isoxazolidine-2-carboxamide] to COc1ncc(-c2ccc3nc(NC(=O)CO)cn3n2)cc1NC(=O)N1OCC[C@H]1c1ccccc1 [Example 5, (S)-N-(5-(2-(2-hydroxyacetamido)imidazo[1,2-b]pyridazin-6-yl)-2-methoxypyridin-3-yl)-3-phenylisoxazolidine-2-carboxamide], the pEC50 falls from 9.40 to 8.54 (0.86 log units). The first is the more potent here.

COc1ncc(-c2csc3c(N)ncnc23)cc1NC(=O)N1OCC[C@H]1c1ccccc1 [Example 128, (S)-N-(5-(4-aminothieno[3,2-d]pyrimidine-7-yl)-2-methoxypyridin-3-yl)-3-phenylisoxazolidine-2-carboxamide] showed a pEC50 of 7.42.
